Data published in ChEMBL document CHEMBL1132881, “First pharmacophoric hypothesis for 5-HT7 antagonism” (Bioorg Med Chem Lett, 2000).

Target: T1, 5-hydroxytryptamine receptor 7 (Homo sapiens, UniProt P34969)
Assay: Binding affinity towards cloned human 5-hydroxytryptamine 7 receptor in HEK 293 cells
Format: cell-based, HEK293

T1 sequence (P34969 whole entry): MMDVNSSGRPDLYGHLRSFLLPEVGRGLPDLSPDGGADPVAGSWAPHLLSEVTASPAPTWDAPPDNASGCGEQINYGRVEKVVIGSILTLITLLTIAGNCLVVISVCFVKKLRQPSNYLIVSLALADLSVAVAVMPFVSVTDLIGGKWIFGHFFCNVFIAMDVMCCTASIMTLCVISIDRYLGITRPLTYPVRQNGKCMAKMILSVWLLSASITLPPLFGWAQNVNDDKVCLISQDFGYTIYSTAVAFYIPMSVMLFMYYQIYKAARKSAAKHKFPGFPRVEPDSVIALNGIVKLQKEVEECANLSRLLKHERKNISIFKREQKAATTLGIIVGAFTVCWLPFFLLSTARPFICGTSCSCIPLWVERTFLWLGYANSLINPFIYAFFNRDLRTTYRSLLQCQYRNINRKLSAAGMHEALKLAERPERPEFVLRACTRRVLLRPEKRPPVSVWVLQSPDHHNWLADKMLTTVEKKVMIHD

How did the Ki turn out when O=C1Nc2cccc3c2C1(CCCCN1CCN(C2CCCCC2)CC1)CCC3 (stereo not drawn) was run?
The Ki was 10 µM.

C[C@H]1CCCN(CC[C@H](C)N(C)S(=O)(=O)c2cccc3ccccc23)C1 was tested. Which Ki did it give?
Its Ki is 10 µM.

Target: T1, 5-hydroxytryptamine receptor 7
Assay: Binding affinity towards human recombinant 5-hydroxytryptamine 7 receptor using [3H]5-CT as radioligand

With O=C1Nc2cccc3c2C1(CCCCN1CCN(c2ccccc2)CC1)CCC3 (stereo not drawn) as the molecule, how does the Ki read?
Its Ki is 0.00316 µM.

Which Ki does the source give for COc1ccccc1N1CCN(CCCCC23CCCc4cccc(c42)NC3=O)CC1 (stereo not drawn) here?
Its Ki is 0.00501 µM.

How did the Ki turn out when O=C1Nc2cccc3c2C1(CCCCN1CCC(c2ccccc2)CC1)CCC3 (stereo not drawn) was run?
Its Ki is 0.002 µM.

O=C1Nc2cccc3c2C1(CCCN1CCN(c2ccccc2)CC1)CCC3 (stereo not drawn) was tested. Which Ki did it give?
Its Ki is 0.00501 µM.

With O=C1Nc2cccc3c2C1(CCN1CCN(c2ccccc2)CC1)CCC3 (stereo not drawn) as the molecule, how does the Ki read?
Its Ki is 0.1 µM.

For N#Cc1ccccc1N1CCN(CCCCC23CCCc4cccc(c42)NC3=O)CC1 (stereo not drawn), which Ki is on record?
The Ki was 0.00398 µM.

Which Ki does the source give for O=C1Nc2cccc3c2C1(CCCCN1CCN(c2ccccn2)CC1)CCC3 (stereo not drawn) here?
Its Ki is 0.002 µM.

Target: T2, 5-hydroxytryptamine receptor 7 (Rattus norvegicus, UniProt P32305)
T2 sequence (P32305 whole entry): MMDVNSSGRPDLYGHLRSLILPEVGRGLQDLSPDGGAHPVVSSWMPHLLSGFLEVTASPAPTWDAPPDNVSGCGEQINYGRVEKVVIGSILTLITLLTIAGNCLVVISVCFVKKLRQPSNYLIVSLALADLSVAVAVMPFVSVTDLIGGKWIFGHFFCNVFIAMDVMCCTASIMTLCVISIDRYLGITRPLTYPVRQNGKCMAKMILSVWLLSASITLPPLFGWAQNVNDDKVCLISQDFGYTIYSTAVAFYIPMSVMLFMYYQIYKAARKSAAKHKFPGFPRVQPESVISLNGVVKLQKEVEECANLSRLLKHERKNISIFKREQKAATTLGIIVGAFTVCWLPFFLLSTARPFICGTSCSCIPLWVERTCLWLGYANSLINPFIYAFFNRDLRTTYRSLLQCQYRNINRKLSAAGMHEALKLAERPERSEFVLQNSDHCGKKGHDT
Assay: Binding affinity against 5-hydroxytryptamine 7 receptor using [3H]-5-CT in rat hypothalamus membranes
Format: cell membranes, Membrane

How did the Ki turn out when CN1CCN(CCCCN2c3cccc4cccc(c34)S2(=O)=O)CC1 was run?
The Ki was greater than 10 µM.

With CC1CCN(CCCCCN2c3cccc4cccc(c34)S2(=O)=O)CC1 as the molecule, how does the Ki read?
The Ki was greater than 10 µM.

For CC1CCN(CCCCN2c3cccc4cccc(c34)S2(=O)=O)CC1, which Ki is on record?
Its Ki is greater than 10 µM.

Which Ki does the source give for COc1ccccc1N1CCN(CCCCCCN2c3cccc4cccc(c34)S2(=O)=O)CC1 here?
Its Ki is 0.2 µM.

O=S1(=O)c2cccc3cccc(c23)N1CCCCCN1CCN(c2ccccc2)CC1 was tested. Which Ki did it give?
The Ki was 0.2 µM.

Which Ki does the source give for COc1ccccc1N1CCN(CCCCN2c3cccc4cccc(c34)S2(=O)=O)CC1 here?
Its Ki is 0.2 µM.

O=C1c2cccc3cccc(c23)N1CCCCN1CCCCC1 was tested. Which Ki did it give?
Its Ki is greater than 10 µM.

CN1CCN(CCCCN2C(=O)c3cccc4cccc2c34)CC1 was tested. Which Ki did it give?
The Ki was greater than 10 µM.

With CC(C)C1CCN(CCCCN2C(=O)c3cccc4cccc2c34)CC1 as the molecule, how does the Ki read?
The Ki was 0.2 µM.

How did the Ki turn out when COc1ccccc1N1CCN(CCCCCN2C(=O)c3cccc4cccc2c34)CC1 was run?
Its Ki is 0.1 µM.

Which Ki does the source give for O=S1(=O)c2cccc3cccc(c23)N1CCCCN1CCCCC1 here?
Its Ki is greater than 10 µM.

CC1CCN(CCCCN2C(=O)c3cccc4cccc2c34)CC1 was tested. Which Ki did it give?
The Ki was greater than 1 µM.

How did the Ki turn out when COc1ccccc1N1CCN(CCCCN2C(=O)c3cccc4cccc2c34)CC1 was run?
Its Ki is 0.0631 µM.

With COc1ccccc1N1CCN(CCCCCN2c3cccc4cccc(c34)S2(=O)=O)CC1 as the molecule, how does the Ki read?
Its Ki is 0.251 µM.

For O=C1c2cccc3cccc(c23)N1CCCCCN1CCN(c2ccccc2)CC1 [UCM-5600], which Ki is on record?
Its Ki is 0.0794 µM.

Target: T2, 5-hydroxytryptamine receptor 7
Assay: Binding affinity towards 5-hydroxytryptamine 7 receptor

With CCN(CC)C(=O)[C@@H]1C=C2c3cccc4[nH]c(Br)c(c34)C[C@H]2N(C)C1 as the molecule, how does the Ki read?
Its Ki is 0.01 µM.

Which Ki does the source give for CN1C[C@H](CNC(=O)OCc2ccccc2)C[C@@H]2c3cccc4c3c(cn4C)C[C@H]21 [METERGOLINE] here?
The Ki was 0.00631 µM.

With Cc1nc2sccn2c(=O)c1CCN1CCC(=C(c2ccc(F)cc2)c2ccc(F)cc2)CC1 [RITANSERIN] as the molecule, how does the Ki read?
Its Ki is 0.0158 µM.

How did the Ki turn out when Cc1cccc(S(=O)(=O)N2CCC[C@@H]2CCN2CCC(C)CC2)c1 [SB-258741] was run?
Its Ki is 0.00316 µM.
